Consider eight compounds from US11034650B2, “Compounds useful for treating a Mannheimia haemolytica or Histophilus somni infection” (Intervet Inc., priority 2016, dated 2021).

What all share (format): cell-based
Assay [1] concerns Mannheimia haemolytica MH 6357 (M7/2, reference strain, cattle infection strain). Nature of the assay: MIC, broth-microdilution (CLSI VET01-A4), strain MH 6357. Particulars: Mannheimia haemolytica strain MH 6357, broth-microdilution; unit assumed. The method, boiled down:
(§1)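 Growth inhibition is scored visually on a doubling dilution series. The reported MIC corresponds to the lowest concentration free of turbidity, with results assessed under CLSI VET01-S3.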
(In general: In broth dilution the organism is exposed to a series of concentrations in liquid medium.)

Assay [2] has as its system Mannheimia haemolytica MH 6374 (ATCC 33396, reference strain). Nature of the assay: MIC, broth-microdilution (CLSI VET01-A4), strain MH 6374. Particulars: Mannheimia haemolytica strain MH 6374, broth-microdilution; unit assumed. The method, boiled down:
as §1

Assay [3] has as its system Mannheimia haemolytica MH 10720 (154, BRD field isolate). Nature of the assay: MIC, broth-microdilution (CLSI VET01-A4), strain MH 10720. The following applies: Mannheimia haemolytica strain MH 10720, broth-microdilution; unit assumed. The method, boiled down:
as §1

In assay [4] the test system is Mannheimia haemolytica MH 12587 (1071, BRD field isolate, macrolide-resistance: erm+, E+). Nature of the assay: MIC, broth-microdilution (CLSI VET01-A4), strain MH 12587. The following applies: Mannheimia haemolytica strain MH 12587, broth-microdilution; unit assumed. The method, boiled down: as §1
The test system of assay [5] is Mannheimia haemolytica MH 13065 (XB0446-6003.9, BRD field isolate). Nature of the assay: MIC, broth-microdilution (CLSI VET01-A4), strain MH 13065. Particulars: Mannheimia haemolytica strain MH 13065, broth-microdilution; unit assumed. The method, boiled down: as §1
The subject of assay [6] is Mannheimia haemolytica MH 13093 (XB0472-6014.1, BRD field isolate). In words: MIC, broth-microdilution (CLSI VET01-A4), strain MH 13093. The following applies: Mannheimia haemolytica strain MH 13093, broth-microdilution; unit assumed. A digest of the protocol:
as §1

The test system of assay [7] is Pasteurella multocida PM 6267 (P 2225 (L386), reference strain, mouse infection strain). In words: MIC, broth-microdilution (CLSI VET01-A4), strain PM 6267. The following applies: Pasteurella multocida strain PM 6267, broth-microdilution; unit assumed. A digest of the protocol:
as §1

Assay [8] concerns Pasteurella multocida PM 6391 (ATCC 43137, reference strain). Nature of the assay: MIC, broth-microdilution (CLSI VET01-A4), strain PM 6391. The following applies: Pasteurella multocida strain PM 6391, broth-microdilution; unit assumed. A digest of the protocol:
as §1

Assay [9] has as its system Pasteurella multocida PM 10775 (080130003051, BRD field isolate). Nature of the assay: MIC, broth-microdilution (CLSI VET01-A4), strain PM 10775. The following applies: Pasteurella multocida strain PM 10775, broth-microdilution; unit assumed. The method, boiled down: as §1
Assay [10] deals with Pasteurella multocida PM 12080 (IV102277-0093, BRD field isolate). In words: MIC, broth-microdilution (CLSI VET01-A4), strain PM 12080. The following applies: Pasteurella multocida strain PM 12080, broth-microdilution; unit assumed. The method, boiled down: as §1

Molecules are shown by their SMILES. Converted amounts (≈) assume the structure as drawn.

For `CC(C)(O)[C@H](NC(=O)c1ccc(C#Cc2ccc(CNCc3ccccn3)cc2)cc1)C(=O)NO` [Compound 230], the MIC MH 6357 in assay [1] was determined as 0.8 µg/mL (≈ 1.69 µM). In addition, the MIC MH 6374 in assay [2] was 0.4 µg/mL (≈ 0.846 µM). Besides, the MIC MH 10720 in assay [3] is not above 0.1 µg/mL. Besides, in assay [4], the MIC MH 12587 was found to be 1.6 µg/mL (≈ 3.39 µM). Also, in assay [5], the MIC MH 13065 amounted to 0.8 µg/mL (≈ 1.69 µM). In [6], this compound came in with an MIC MH 13093 of 0.8 µg/mL (≈ 1.69 µM). For the same compound, the MIC PM 6267 in [7] is not above 0.1 µg/mL. Besides, the MIC PM 6391 in assay [8] is not above 0.1 µg/mL. The compound also registered an MIC PM 10775 in assay [9] not above 0.1 µg/mL. The compound further returned an MIC PM 12080 in assay [10] not above 0.1 µg/mL.
The compound `CC(C)(O)[C@H](NC(=O)c1ccc(C#Cc2ccc(CNCc3ccco3)cc2)cc1)C(=O)NO` [Compound 231] yielded an MIC MH 6357 in assay [1] of 0.4 µg/mL (≈ 0.867 µM). Moreover, the MIC MH 6374 in assay [2] amounted to 0.2 µg/mL (≈ 0.433 µM). In addition, the MIC MH 10720 in assay [3] is not above 0.1 µg/mL. In addition, the MIC MH 12587 in [4] was 0.8 µg/mL (≈ 1.73 µM). The compound further had an MIC MH 13065 in assay [5] of 0.2 µg/mL (≈ 0.433 µM). Further, in assay [6], the MIC MH 13093 was determined as 0.4 µg/mL (≈ 0.867 µM). In assay [7], this compound gave an MIC PM 6267 not above 0.1 µg/mL. The compound also came in with an MIC PM 6391 in assay [8] not above 0.1 µg/mL. In assay [9], the MIC PM 10775 is not above 0.1 µg/mL. The same compound had an MIC PM 12080 in assay [10] not above 0.1 µg/mL.
With `CC(C)(O)C(NC(=O)c1ccc(C#Cc2ccc(CNCc3cccs3)cc2)cc1)C(=O)NO` (centres unmarked) [Compound 232], in [1], the MIC MH 6357 amounted to 0.4 µg/mL (≈ 0.838 µM). In [2], this compound had an MIC MH 6374 not above 0.1 µg/mL. This compound also registered an MIC MH 10720 in [3] not above 0.1 µg/mL. Besides, the MIC MH 12587 in [4] came to 0.4 µg/mL (≈ 0.838 µM). The compound further returned an MIC MH 13065 in assay [5] not above 0.1 µg/mL. The compound further came in with an MIC MH 13093 in assay [6] of 0.2 µg/mL (≈ 0.419 µM). This compound also had an MIC PM 6267 in [7] not above 0.1 µg/mL. The MIC PM 6391 in assay [8] was not above 0.1 µg/mL. In addition, the MIC PM 10775 in assay [9] was not above 0.1 µg/mL. Also, the MIC PM 12080 in assay [10] was not above 0.1 µg/mL.
Consider `Cc1ccc(CNCc2ccc(C#Cc3ccc(C(=O)NC(C(=O)NO)C(C)(C)O)cc3)cc2)cc1` (centres unmarked) [Compound 233], for which the MIC MH 6357 in [1] came to 0.8 µg/mL (≈ 1.65 µM). The compound also had an MIC MH 6374 in [2] of 0.4 µg/mL (≈ 0.824 µM). This compound displayed an MIC MH 10720 in assay [3] not above 0.1 µg/mL. Moreover, the MIC MH 12587 in [4] worked out at 1.6 µg/mL (≈ 3.3 µM). Also, the MIC MH 13065 in assay [5] turned out to be 0.4 µg/mL (≈ 0.824 µM). The compound also displayed an MIC MH 13093 in [6] of 0.8 µg/mL (≈ 1.65 µM). Further, in [7], the MIC PM 6267 was not above 0.1 µg/mL. In [8], this compound returned an MIC PM 6391 of 0.2 µg/mL (≈ 0.412 µM). In assay [9], this compound showed an MIC PM 10775 not above 0.1 µg/mL. This compound also yielded an MIC PM 12080 in assay [10] not above 0.1 µg/mL.
`CC(C)(O)C(NC(=O)c1ccc(C#Cc2ccc(CNCC3CCCO3)cc2)cc1)C(=O)NO` (centres unmarked) [Compound 234]: the MIC MH 6357 in assay [1] was 6.3 µg/mL (≈ 13.5 µM). This compound also had an MIC MH 6374 in assay [2] of 3.1 µg/mL (≈ 6.66 µM). Also, the MIC MH 10720 in assay [3] was determined as 0.4 µg/mL (≈ 0.859 µM). In assay [4], this compound came in with an MIC MH 12587 of 6.3 µg/mL (≈ 13.5 µM). In assay [5], this compound showed an MIC MH 13065 of 3.1 µg/mL (≈ 6.66 µM). In [6], this compound gave an MIC MH 13093 of 6.3 µg/mL (≈ 13.5 µM). Also, the MIC PM 6267 in assay [7] is not above 0.1 µg/mL. In addition, the MIC PM 6391 in assay [8] worked out at 0.4 µg/mL (≈ 0.859 µM). In [9], this compound displayed an MIC PM 10775 not above 0.1 µg/mL. The compound further yielded an MIC PM 12080 in [10] of 0.2 µg/mL (≈ 0.43 µM).
For `CSC(C)(C)[C@H](NC(=O)c1ccc(C#Cc2ccc(CNC3CC3)cc2)cc1)C(=O)NO` [Compound 235], the MIC MH 6357 in assay [1] was determined as 0.4 µg/mL (≈ 0.886 µM). This compound also displayed an MIC MH 6374 in assay [2] of 0.8 µg/mL (≈ 1.77 µM). Further, in [3], the MIC MH 10720 was not above 0.1 µg/mL. The same compound displayed an MIC MH 12587 in assay [4] of 1.6 µg/mL (≈ 3.54 µM). Further, the MIC MH 13065 in assay [5] amounted to 0.4 µg/mL (≈ 0.886 µM). In assay [6], this compound had an MIC MH 13093 of 0.4 µg/mL (≈ 0.886 µM). In addition, in assay [7], the MIC PM 6267 is not above 0.1 µg/mL. For the same compound, the MIC PM 6391 in assay [8] was not above 0.1 µg/mL. Besides, in assay [9], the MIC PM 10775 was not above 0.1 µg/mL. The MIC PM 12080 in [10] was not above 0.1 µg/mL.
With `CSC(C)(C)[C@H](NC(=O)c1ccc(C#Cc2ccc(CN3CCOCC3)cc2)cc1)C(=O)NO` [Compound 238], the MIC MH 6357 in assay [1] was 1.6 µg/mL (≈ 3.32 µM). In [2], this compound registered an MIC MH 6374 of 3.1 µg/mL (≈ 6.44 µM). This compound returned an MIC MH 10720 in assay [3] of 0.8 µg/mL (≈ 1.66 µM). The same compound showed an MIC MH 12587 in assay [4] of 3.1 µg/mL (≈ 6.44 µM). The MIC MH 13065 in [5] turned out to be 1.6 µg/mL (≈ 3.32 µM). Also, the MIC MH 13093 in assay [6] was determined as 1.6 µg/mL (≈ 3.32 µM). In addition, the MIC PM 6267 in assay [7] was not above 0.1 µg/mL. Moreover, the MIC PM 6391 in assay [8] was not above 0.1 µg/mL. The same compound returned an MIC PM 10775 in assay [9] not above 0.1 µg/mL. For the same compound, in assay [10], the MIC PM 12080 was not above 0.1 µg/mL.
Consider `CSC(C)(C)[C@H](NC(=O)c1ccc(C#Cc2ccc(CNCc3ccccc3)cc2)cc1)C(=O)NO` [Compound 239], for which the MIC MH 6357 in assay [1] worked out at 0.8 µg/mL (≈ 1.59 µM). This compound also had an MIC MH 6374 in [2] of 1.6 µg/mL (≈ 3.19 µM). For the same compound, in [3], the MIC MH 10720 amounted to 0.2 µg/mL (≈ 0.399 µM). In assay [4], this compound gave an MIC MH 12587 of 1.6 µg/mL (≈ 3.19 µM). For the same compound, the MIC MH 13065 in assay [5] was 0.8 µg/mL (≈ 1.59 µM). Further, in [6], the MIC MH 13093 was 0.8 µg/mL (≈ 1.59 µM). The MIC PM 6267 in [7] was 0.2 µg/mL (≈ 0.399 µM). This compound also displayed an MIC PM 6391 in [8] of 0.4 µg/mL (≈ 0.797 µM). In addition, the MIC PM 10775 in assay [9] is not above 0.1 µg/mL. The compound further came in with an MIC PM 12080 in assay [10] of 0.4 µg/mL (≈ 0.797 µM).
